The values that follow come from ChEMBL document CHEMBL3352398, “2-(2-Bromophenyl)-formononetin and 2-heptyl-formononetin are PPARγ partial agonists and reduce lipid accumulation in 3T3-L1 adipocytes” (Bioorg Med Chem, 2014).

Activity calls are given as the source filed them. The calls are words filed in the database; no cut-off is given here.

Series [1] deals with 3T3-L1. Briefly: Reduction of adipogenesis in mouse 3T3L1 cells assessed as decrease in lipid accumulation measured on day 8 by fluorescence-based AdipoRed assay. It counts as functional, cell-based.
Series [2] has as its system 3T3-L1. Briefly: Reduction of adipogenesis in mouse 3T3L1 cells assessed as decrease in lipid accumulation measured on day 8 by oil red o assay. It counts as functional, cell-based.
Series [3] is described as follows: Cytotoxicity against mouse 3T3L1 cells assessed as effect on lactate dehydrogenase release at 5 to 50 uM measured on day 2. It counts as cell-based. The following applies: 3t3-l1, 50 µM.
Series [4] has as its system 3T3-L1. Briefly: Effect on adipogenesis in mouse 3T3L1 cells assessed as reduction in Pparg gene expression at 5 to 50 uM after 8 days by real time quantitative PCR analysis relative to vehicle-treated control. It counts as functional, cell-based.
The test system of series [5] is 3T3-L1. The series can be described thus: Effect on adipogenesis in mouse 3T3L1 cells assessed as increase in Srebf1 gene expression at 5 to 50 uM after 8 days by real time quantitative PCR analysis relative to vehicle-treated control. It counts as functional, cell-based.
In series [6] the test system is 3T3-L1. Briefly: Effect on adipogenesis in mouse 3T3L1 cells assessed as reduction in Fabp4 gene expression at 5 to 50 uM after 8 days by real time quantitative PCR analysis relative to vehicle-treated control. It counts as functional, cell-based.
In series [7] the test system is 3T3-L1. The series can be described thus: Effect on adipogenesis in mouse 3T3L1 cells assessed as reduction in Adipoq gene expression at 5 to 50 uM after 8 days by real time quantitative PCR analysis relative to vehicle-treated control. It counts as functional, cell-based.
In series [8] the test system is 3T3-L1. Briefly: Effect on adipogenesis in mouse 3T3L1 cells assessed as reduction in Pparg gene expression at 5 to 50 uM after 4 days by real time quantitative PCR analysis relative to vehicle-treated control. It counts as functional, cell-based.
Series [9] concerns 3T3-L1. Briefly: Effect on adipogenesis in mouse 3T3L1 cells assessed as reduction in Srebf1 gene expression at 5 to 50 uM after 4 days by real time quantitative PCR analysis relative to vehicle-treated control. It counts as functional, cell-based.
In series [10] the test system is 3T3-L1. The series can be described thus: Effect on adipogenesis in mouse 3T3L1 cells assessed as reduction in Adipoq gene expression at 5 to 50 uM after 4 days by real time quantitative PCR analysis relative to vehicle-treated control. It counts as functional, cell-based.
Series [11] relates to 3T3-L1. The series can be described thus: Effect on adipogenesis in mouse 3T3L1 cells in DI media assessed as increase in fat-laden mature adipocytes at <25 uM after 8 days by oil red o assay. It counts as functional, cell-based.
In series [12] the test system is 3T3-L1. Briefly: Reduction in triglyceride release in mouse 3T3L1 cells at 50 uM after 48 hrs by fluorescence-based AdipoRed assay. It counts as functional, cell-based.
Series [13] relates to 3T3-L1. Briefly: Reduction in lipogenesis in mouse 3T3L1 cells assessed as down regulation of Srebf1 gene exression by real time-qPCR analysis. It counts as functional, cell-based. A general note: Real-time PCR tracks product formation cycle by cycle.
In series [14] the test system is 3T3-L1. Briefly: Reduction in lipogenesis in mouse 3T3L1 cells assessed as down regulation of Acaca gene exression by real time-qPCR analysis. It counts as functional, cell-based.
For series [15], the system named is 3T3-L1. The series can be described thus: Reduction in lipogenesis in mouse 3T3L1 cells assessed as down regulation of Fasn gene exression by real time-qPCR analysis. It counts as functional, cell-based.
In series [16] the test system is 3T3-L1. The series can be described thus: Reduction in lipogenesis in mouse 3T3L1 cells assessed as down regulation of Scd1 gene exression by real time-qPCR analysis. It counts as functional, cell-based.
For series [17], the system named is 3T3-L1. Briefly: Induction of lipolysis in mouse 3T3L1 cells assessed as up-regulation of Atgl gene exression by real time-qPCR analysis. It counts as functional, cell-based.
The target of series [18] is T1, Peroxisome proliferator-activated receptor gamma (Homo sapiens) (UniProt P37231).
T1 sequence (whole entry): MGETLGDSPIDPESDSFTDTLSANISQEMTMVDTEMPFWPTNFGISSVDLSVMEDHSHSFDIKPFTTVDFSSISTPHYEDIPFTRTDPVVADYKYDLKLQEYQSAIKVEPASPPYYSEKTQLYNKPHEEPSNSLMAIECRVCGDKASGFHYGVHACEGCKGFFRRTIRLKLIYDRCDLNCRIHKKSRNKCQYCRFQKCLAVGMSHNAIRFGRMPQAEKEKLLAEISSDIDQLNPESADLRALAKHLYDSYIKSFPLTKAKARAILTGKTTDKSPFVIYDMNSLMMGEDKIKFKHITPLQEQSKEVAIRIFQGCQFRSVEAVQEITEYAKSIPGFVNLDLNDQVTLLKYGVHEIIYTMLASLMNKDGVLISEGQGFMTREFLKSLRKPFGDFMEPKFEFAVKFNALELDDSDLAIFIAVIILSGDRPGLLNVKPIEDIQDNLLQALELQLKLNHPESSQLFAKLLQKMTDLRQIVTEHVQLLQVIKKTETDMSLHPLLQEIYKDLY
Briefly: Competitive binding to human GST-tagged PPAR-gamma at <=100 uM by TR-FRET assay.

Series [19] addresses T2, Peroxisome proliferator-activated receptor gamma (Mus musculus) (UniProt P37238).
T2 sequence (whole entry): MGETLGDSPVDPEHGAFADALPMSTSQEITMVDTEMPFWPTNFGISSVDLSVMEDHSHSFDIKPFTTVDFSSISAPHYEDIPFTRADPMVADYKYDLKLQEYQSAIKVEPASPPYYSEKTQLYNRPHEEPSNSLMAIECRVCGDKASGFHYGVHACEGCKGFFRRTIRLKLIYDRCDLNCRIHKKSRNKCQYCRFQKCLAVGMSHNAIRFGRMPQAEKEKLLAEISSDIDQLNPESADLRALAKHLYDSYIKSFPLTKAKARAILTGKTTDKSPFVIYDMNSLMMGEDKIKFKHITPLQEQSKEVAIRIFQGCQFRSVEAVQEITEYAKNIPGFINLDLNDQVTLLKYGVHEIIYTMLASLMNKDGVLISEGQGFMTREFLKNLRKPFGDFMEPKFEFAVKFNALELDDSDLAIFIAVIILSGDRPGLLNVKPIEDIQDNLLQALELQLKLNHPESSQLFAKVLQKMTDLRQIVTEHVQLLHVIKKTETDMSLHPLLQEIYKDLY
Briefly: Agonist activity at PPAR-gamma in mouse embryo fibroblast at 5 to 50 uM by transactivation assay relative to rosiglitazone.

In series [20] the target is T2, Peroxisome proliferator-activated receptor gamma (Mus musculus). Briefly: Agonist activity at PPAR-gamma in mouse embryo fibroblast by transactivation assay relative to rosiglitazone.
Series [21] has as its target T3, Peroxisome proliferator-activated receptor delta (Homo sapiens) (UniProt Q03181).
T3 sequence (whole entry): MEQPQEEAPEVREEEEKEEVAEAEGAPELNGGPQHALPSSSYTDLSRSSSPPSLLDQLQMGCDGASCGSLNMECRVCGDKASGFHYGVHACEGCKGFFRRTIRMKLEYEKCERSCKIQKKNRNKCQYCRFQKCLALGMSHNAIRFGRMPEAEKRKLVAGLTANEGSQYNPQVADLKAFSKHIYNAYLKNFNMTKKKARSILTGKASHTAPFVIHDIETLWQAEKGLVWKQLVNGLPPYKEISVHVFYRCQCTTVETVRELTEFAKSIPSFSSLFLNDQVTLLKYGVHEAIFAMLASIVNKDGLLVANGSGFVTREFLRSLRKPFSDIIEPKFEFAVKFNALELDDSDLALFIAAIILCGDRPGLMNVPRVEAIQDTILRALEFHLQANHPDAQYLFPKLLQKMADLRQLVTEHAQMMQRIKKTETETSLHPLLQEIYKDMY
The series can be described thus: Agonist activity at PPAR-delta (unknown origin) by transactivation assay.

Series [22] in a line: Effect on adipogenesis in mature mouse 3T3L1 cells assessed as upregulation of Sirt1 gene expression. It counts as functional, cell-based. The following applies: 3T3-L1.

As for `CCCCCCCc1oc2cc(O)ccc2c(=O)c1-c1ccc(OC)cc1`, the Activity result in [1] was “Dose-dependent effect”; in series [2], “Dose-dependent effect”; in series [3] it was “Non-toxic”; in [4] it was “Dose-dependent effect”; in [5], “Dose-dependent effect”; in [7], “Dose-dependent effect”. For the same molecule, the Activity result was “Dose-dependent effect” in series [8]; “Dose-dependent effect” in series [9]; “Dose-dependent effect” in series [10]; 33% in series [19]; “Dose-dependent effect” in [20]. The outcome in series [6], in series [21] and in series [22] was inactive. The result in series [11], in series [12], in series [13], in series [14], in [15] and in series [16] was Active. The outcome in series [17] and in [18] was Active.
